Experiments:
human brain hexokinase [1] = target: T1, human brain hexokinase (Homo sapiens, UniProt P19367); conditions: read-out: Km for glucose utilization by brain hexokinase, Michaelis constant; cited from earlier work
T1 sequence (P19367 1-917): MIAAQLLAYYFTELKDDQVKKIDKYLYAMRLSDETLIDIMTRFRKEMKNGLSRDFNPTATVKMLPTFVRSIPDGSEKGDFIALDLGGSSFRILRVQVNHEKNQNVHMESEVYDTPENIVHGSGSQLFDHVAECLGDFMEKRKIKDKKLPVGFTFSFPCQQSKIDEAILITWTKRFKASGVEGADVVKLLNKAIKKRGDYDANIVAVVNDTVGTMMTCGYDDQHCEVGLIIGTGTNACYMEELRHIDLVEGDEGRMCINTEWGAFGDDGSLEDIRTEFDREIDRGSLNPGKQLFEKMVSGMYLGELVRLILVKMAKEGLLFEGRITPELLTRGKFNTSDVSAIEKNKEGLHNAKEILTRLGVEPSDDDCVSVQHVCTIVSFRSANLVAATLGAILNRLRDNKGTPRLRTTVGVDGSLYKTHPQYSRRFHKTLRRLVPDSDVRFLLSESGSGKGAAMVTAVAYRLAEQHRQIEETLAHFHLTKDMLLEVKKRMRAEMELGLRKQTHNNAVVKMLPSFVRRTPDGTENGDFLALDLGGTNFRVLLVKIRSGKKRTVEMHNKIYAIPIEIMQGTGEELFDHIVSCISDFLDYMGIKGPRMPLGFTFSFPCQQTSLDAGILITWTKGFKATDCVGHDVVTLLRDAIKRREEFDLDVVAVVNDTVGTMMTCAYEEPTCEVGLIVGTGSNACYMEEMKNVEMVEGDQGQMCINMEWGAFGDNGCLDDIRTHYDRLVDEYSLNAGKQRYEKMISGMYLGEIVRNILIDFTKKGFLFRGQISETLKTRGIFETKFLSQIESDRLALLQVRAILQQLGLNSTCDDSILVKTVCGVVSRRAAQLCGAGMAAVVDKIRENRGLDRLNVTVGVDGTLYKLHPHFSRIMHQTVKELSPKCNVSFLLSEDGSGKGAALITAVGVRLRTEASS

[2] = reconstituted according to certain directions, at body temperature; cited from earlier work
Rat Brain Hexokinase = assay: Competitive inhibition of rat brain hexokinase; assay type: biochemical; conditions: J. Neurochemistry 37: 1000 (1981)
Description: Rather than relying on indirect manipulative steps to avoid contrast agent diffusion to brain, there is a need for an inexpensive, reliable, direct mechanism to avoid central nervous system complications induced by the iodo-benzamido-glucopyranose x-ray contrast agents. Following intense pharmacological research into the biochemical activity of the contrast agents, typified by metrizamide, Applicant has discovered that such compounds interfere with glycolysis metabolism in the brain. […] This interference with the utilization of glucose, which normally serves as the obligatory energy source in the brain, may explain some of the depressive effects of intrathecally administered metrizamide and related compounds.

human brain hexokinase [3] = target: T1, human brain hexokinase; assay: Calculated glucose utilization by brain hexokinase (v/Vmax, Michaelis-Menten equation with competitive inhibitor); parameters: from tissue; host or cells: human brain
Description: (§1) The appropriate amount of glucose to be combined with or to be coadministered with a selected iodo-benzamido-glucopyranose contrast agent can be determined by knowing the hexokinase inhibition constant (Ki) for a selected contrast agent. The ratio of the activity of an enzyme to its maximal activity (Vmax) in the presence of competitive inhibitors is given by the following formula: v/Vmax=[S]/([S]+Km(1+([I]/Ki)), where [S] is glucose concentration, [I] is inhibitor concentration, Km is the Michaelis constant for glucose utilization of hexokinase, and Ki is the inhibition constant for the contrast agent. With no inhibitor present, glucose utilization by human brain hexokinase is represented by a v/Vmax of 0.99 (the Km for glucose utilization by brain hexokinase is 0.05 mM, and typical spinal fluid contains 4 mM glucose).
In a routine myelographic procedure, 780 mM (300 mg I/ml) metrizamide is administered. Substituting this variable into the above Michaelis-Menten equation, one finds a v/Vmax of only 0.25. […]
However because metrizamide is a relatively weak competitive inhibitor of glucose, a small increase in glucose concentration can restore hexokinase-glucose utilization to an effective level. […] By solving for [S] it is calculated that an initial concentration of about 100 mM glucose is needed to counteract the effects of an intrathecal injection of 780 mM metrizamide. […]

patients = conditions: cerebrospinal myelography patients; cited from earlier work
human brain hexokinase [4] = target: T1, human brain hexokinase; assay: Inhibition constant for human brain hexokinase; assay type: biochemical; parameters: from tissue; host or cells: human brain; conditions: with respect to human brain hexokinase; competitive with glucose
Description: as §1
In a routine myelographic procedure, 780 mM (300 mg I/ml) metrizamide is administered. Substituting this variable into the above Michaelis-Menten equation, one finds a v/Vmax of only 0.25. This value represents a significant reduction in glucose utilization. Even if the concentration of metrizamide were diluted tenfold by the time it reached the cerebral surfaces, a v/Vmax of only 0.77 is predicted. Reductions in glucose utilization ranging from 0.6 to 0.7 have been associated with varieties of stupor and coma in humans.

Compound	Km (human brain hexokinase [1]) [µM]	specific gravity [2]	mode of hexokinase inhibition (Rat Brain Hexokinase)	v/Vmax (glucose utilization) (human brain hexokinase [3]; 780 mM (300 mg I/ml) metrizamide, routine myelographic procedure, typical spinal fluid 4 mM glucose)	v/Vmax (glucose utilization) (human brain hexokinase [3]; metrizamide concentration diluted tenfold by the time it reaches the cerebral surfaces)	fraction of patients treated with temporary confusional state and EEG deterioration (patients)	Ki (human brain hexokinase [4]) [mM]
OC[C@H]1OC(O)[C@H](O)[C@@H](O)[C@@H]1O (stereo partly shown) [glucose]	50	–	–	–	–	–	–
CC(=O)Nc1c(I)c(C(=O)N[C@H]2C(O)O[C@H](CO)[C@@H](O)[C@@H]2O)c(I)c(N(C)C(C)=O)c1I (stereo partly drawn) [metrizamide, 2-[3-Acetamido-2,4,6-triiodo-5-(N-methylacetamido)benzamido]-2-deoxy-D-glucopyranose]	–	1.184	competes with glucose to inhibit hexokinase activity	0.25	0.77	about one-third	2.5

— US4455292A, “Radiological contrast composition and methods” (Board of Regents, the University of Texas System, priority 1982, dated 1984)
